The IC50 is the concentration at which inhibition is half-maximal. High values mean lower potency, low ones higher potency. The half-life is how long it takes for the measured level to halve. What is called Cmax is the maximum level reached in the sampled fluid or tissue. A word on the AUC(0-t): it is exposure summed from dosing to a finite time, without extrapolation to infinity. The term clearance denotes a measure of how efficiently the substance is removed, as volume per time. What is called CL/F is clearance divided by bioavailability, as obtained after extravascular dosing. The term MRT last denotes a mean duration of stay, worked out from the concentration-time curve.

A short description of data set [1]: Inhibition of hedgehog signaling pathway in mouse NIH/3T3 cells carrying stably transfected Gli-reporter construct by luciferase reporter assay. Format: cell-based. The note with it: NIH3T3. (In general: In a reporter assay the amount or activity of a reporter protein is the signal.)
The species named for data set [2] is Mus musculus. Nature of the data set: Potency index, ratio of IC50 for Vismodegib to IC50 for test compound for inhibition of hedgehog signaling pathway in mouse NIH/3T3 cells carrying stably transfected Gli-reporter construct by luciferase reporter assay. It is filed as cell-based.
The nature of data set [3]: Half life in Sprague-Dawley rat at 1 mg/kg, iv formulated using 5% DMA + 5% Tween-80 measured during 2 mins to 24 hrs post dose by LC/MS/MS method. The note with it: in vivo. Format: ADME, organism-based.
A short description of data set [4]: Half life in Sprague-Dawley rat at 5 mg/kg, po formulated using 5% DMA + 5% Tween-80 measured during 2 mins to 24 hrs post dose by LC/MS/MS method. Format: ADME, organism-based. The note with it: in vivo.
Data set [5] is described as follows: Half life in Sprague-Dawley rat at 5 mg/kg, po formulated using 0.5% HPMC + 0.3% Tween-80 (pH = 2.8) measured during 2 mins to 24 hrs post dose by LC/MS/MS method. It is filed as ADME, organism-based. The note with it: in vivo.
A short description of data set [6]: Cmax in Sprague-Dawley rat at 1 mg/kg, iv formulated using 5% DMA + 5% Tween-80 measured during 2 mins to 24 hrs post dose by LC/MS/MS method. It is filed as ADME, organism-based. On the set-up: dose 1 mg/kg, route intravenous. The note with it: in vivo.
A short description of data set [7]: Cmax in Sprague-Dawley rat at 5 mg/kg, po formulated using 5% DMA + 5% Tween-80 measured during 2 mins to 24 hrs post dose by LC/MS/MS method. It is filed as ADME, organism-based. On the set-up: dose 5 mg/kg, route oral. The note with it: in vivo.
Data set [8] can be described thus: Cmax in Sprague-Dawley rat at 5 mg/kg, po formulated using 0.5% HPMC + 0.3% Tween-80 (pH = 2.8) measured during 2 mins to 24 hrs post dose by LC/MS/MS method. The note with it: in vivo. On the set-up: dose 5 mg/kg, route oral. Format: ADME, organism-based.
Data set [9] can be described thus: AUC (0 to t) in Sprague-Dawley rat at 1 mg/kg, iv formulated using 5% DMA + 5% Tween-80 measured during 2 mins to 24 hrs post dose by LC/MS/MS method. Format: ADME, organism-based. On the set-up: dose 1 mg/kg, time 0.033-24 hr, route intravenous. The note with it: in vivo.
The nature of data set [10]: AUC (0 to t) in Sprague-Dawley rat at 5 mg/kg, po formulated using 5% DMA + 5% Tween-80 measured during 2 mins to 24 hrs post dose by LC/MS/MS method. Format: ADME, organism-based. On the set-up: time upper 24 hr, time lower 0.033 hr, dose 5 mg/kg, route oral. The note with it: in vivo.
A short description of data set [11]: AUC (0 to t) in Sprague-Dawley rat at 5 mg/kg, po formulated using 0.5% HPMC + 0.3% Tween-80 (pH = 2.8) measured during 2 mins to 24 hrs post dose by LC/MS/MS method. It is filed as ADME, organism-based. On the set-up: time 0.033-24 hr, dose 5 mg/kg, route oral. The note with it: in vivo.
The nature of data set [12]: Apparent volume of distribution in Sprague-Dawley rat at 1 mg/kg, iv formulated using 5% DMA + 5% Tween-80 measured during 2 mins to 24 hrs post dose by LC/MS/MS method. The note with it: in vivo, read-out: Vz. Format: ADME, organism-based.
Data set [13] relates to Rattus norvegicus. Nature of the data set: Apparent volume of distribution in Sprague-Dawley rat at 5 mg/kg, po formulated using 5% DMA + 5% Tween-80 measured during 2 mins to 24 hrs post dose by LC/MS/MS method. It is filed as ADME, organism-based. The note with it: in vivo.
Data set [14] has as its system Rattus norvegicus. Nature of the data set: Apparent volume of distribution in Sprague-Dawley rat at 5 mg/kg, po formulated using 0.5% HPMC + 0.3% Tween-80 (pH = 2.8) measured during 2 mins to 24 hrs post dose by LC/MS/MS method. The note with it: in vivo, pH 2.8, 5 mg/kg. Format: ADME, organism-based.
Data set [15] can be described thus: Clearance in Sprague-Dawley rat at 1 mg/kg, iv formulated using 5% DMA + 5% Tween-80 measured during 2 mins to 24 hrs post dose by LC/MS/MS method. It is filed as ADME, organism-based. The note with it: in vivo.
Data set [16] is described as follows: Clearance in Sprague-Dawley rat at 5 mg/kg, po formulated using 5% DMA + 5% Tween-80 measured during 2 mins to 24 hrs post dose by LC/MS/MS method. It is filed as ADME, organism-based. The note with it: in vivo.
Data set [17] in a line: Clearance in Sprague-Dawley rat at 5 mg/kg, po formulated using 0.5% HPMC + 0.3% Tween-80 (pH = 2.8) measured during 2 mins to 24 hrs post dose by LC/MS/MS method. Format: ADME, organism-based. The note with it: in vivo.
The nature of data set [18]: Mean residence time (0 to t) in Sprague-Dawley rat at 1 mg/kg, iv formulated using 5% DMA + 5% Tween-80 measured during 2 mins to 24 hrs post dose by LC/MS/MS method. Format: ADME, organism-based. The note with it: in vivo.
Data set [19] can be described thus: Mean residence time (0 to t) in Sprague-Dawley rat at 5 mg/kg, po formulated using 5% DMA + 5% Tween-80 measured during 2 mins to 24 hrs post dose by LC/MS/MS method. Format: ADME, organism-based. The note with it: in vivo.
The nature of data set [20]: Mean residence time (0 to t) in Sprague-Dawley rat at 5 mg/kg, po formulated using 0.5% HPMC + 0.3% Tween-80 (pH = 2.8) measured during 2 mins to 24 hrs post dose by LC/MS/MS method. It is filed as ADME, organism-based. The note with it: in vivo.

Take `CCN(CC)Cc1ccc(C)c(NC(=O)c2ccc(Nc3ncc(C)c(-c4ccc(OC(F)(F)F)cc4)n3)c(F)c2)c1`: the IC50 in data set [1] came to 0.9 nM. In addition, the Ratio IC50 in data set [2] was over 8.

The compound `Cc1ccc(CN2CCCCC2)cc1NC(=O)c1ccc(Nc2ncc(C)c(-c3ccc(OC(F)(F)F)cc3)n2)c(F)c1` showed a concentration for half-maximal inhibition (IC50) in data set [1] of 0.94 nM. For the same compound, the Ratio IC50 in [2] was over 8.

`Cc1ccc(CN2CCOCC2)cc1NC(=O)c1ccc(Nc2ncc(C)c(-c3ccccn3)n2)c(F)c1` gave an IC50 in data set [1] of 1.15 nM. In other words, the single-digit nanomolar range.

Take `Cc1ccc(CN2CCOCC2)cc1NC(=O)c1ccc(Nc2nccc(-c3cnn(C)c3)n2)c(F)c1`: the IC50 in [1] was 48.9 nM.

As for `Cc1ccc(OCCCN2CCOCC2)cc1NC(=O)c1ccc(Nc2ncc(C)c(-c3ccc(OC(F)(F)F)cc3)n2)c(F)c1`, the IC50 in data set [1] came out at 1.02 nM.

Regarding `Cc1ccc(CN2CCOCC2)cc1NC(=O)c1ccc(Nc2ncc(C)c(-c3ccc(OC(F)(F)F)cc3)n2)c(F)c1`, in data set [1], the IC50 is 0.5 nM. Also, the Ratio IC50 in data set [2] is 14.

In turn, `Cc1ccc(OCCN2CCOCC2)cc1NC(=O)c1ccc(Nc2ncc(C)c(-c3ccc(OC(F)(F)F)cc3)n2)c(F)c1` returned an IC50 in [1] of 0.71 nM. In addition, in [2], the Ratio IC50 is over 8.

For the compound `Cc1ccc(CN2CCN(C)CC2)cc1NC(=O)c1ccc(Nc2nccc(-c3cccnc3)n2)c(F)c1`, in data set [1], 7.2 nM corresponded to half-maximal inhibition (IC50).

For `Cc1ccc(CN2CCN(C)CC2)cc1NC(=O)c1ccc(Nc2ncc(C)c(-c3ccc(OC(F)(F)F)cc3)n2)c(F)c1`, in data set [1], the IC50 is 0.93 nM. Moreover, the Ratio IC50 in data set [2] was over 8. Besides, the half-life in [3] was 811 min; in data set [4], 893 min; in data set [5] it was 703 min. Also, the values for the highest concentration (Cmax) in [6], in data set [7] and in data set [8] were 225 ng/mL, 62.4 ng/mL and 57.1 ng/mL, respectively. Also, the AUC(0-t) came out at 383 ng·h/mL in [9], 956 ng·h/mL in data set [10] and 882 ng·h/mL in [11]. The Vd in [12] is 37.4 L/kg. The figures for the Vz in [13] and in data set [14] were 71687.7 mL/kg and 69464.7 mL/kg, respectively. The clearance in data set [15] is 32.2 mL/min/kg. Moreover, the CL/F in data set [16] was 55.7 mL/min/kg; in [17], 68.7 mL/min/kg. Moreover, the MRT last in data set [18] is 7.93 h; in data set [19], 10.7 h; in data set [20], 10.3 h.

As to `Cc1ccc(CN2CCN(C)CC2)cc1NC(=O)c1ccc(Nc2ncc(F)c(-c3ccncc3)n2)c(F)c1`, the midpoint of inhibition in data set [1], the IC50, lay at 42.7 nM.

Turning to `Cc1ccc(CN(C)C)cc1NC(=O)c1ccc(Nc2ncc(C)c(-c3ccc(OC(F)(F)F)cc3)n2)c(F)c1`, the IC50 in data set [1] came out at 0.78 nM. Moreover, in data set [2], the Ratio IC50 was over 8.

On to `Cc1ccc(CN2CCCC2)cc1NC(=O)c1ccc(Nc2ncc(C)c(-c3ccc(OC(F)(F)F)cc3)n2)c(F)c1`, for which the IC50 in [1] was found to be 2.03 nM. That is a single-digit nanomolar value.

For `Cc1ccc(CN2CCN(C)CC2)cc1NC(=O)c1ccc(Nc2ncc(F)c(-c3ccc(OC(F)(F)F)cc3)n2)c(F)c1`, it took 5.67 nM to reach half-maximal inhibition in data set [1] (IC50). Against the preceding compound, the IC50 is about 2.8-fold higher.

Compound `CS(=O)(=O)c1ccc(C(=O)Nc2ccc(Cl)c(-c3ccccn3)c2)c(Cl)c1` [VISMODEGIB] had an IC50 in data set [1] of 7.2 nM.

In [1], `Cc1ccc(CN2CCOCC2)cc1NC(=O)c1ccc(Nc2ncc(C)c(-c3ccccc3)n2)c(F)c1` showed an IC50 of 0.05 nM. In data set [2], the Ratio IC50 was 150.

For the origin of these results see ChEMBL document CHEMBL4052695, “Introduction of fluorine to phenyl group of 4-(2-pyrimidinylamino)benzamides leading to a series of potent hedgehog signaling pathway inhibitors” (Bioorg Med Chem Lett, 2017).
